PMC5361054, “Exploring the Association of Surface Plasmon Resonance with Recombinant MHC:Ig Hybrid Protein as a Tool for Detecting T Lymphocytes in Mice Infected with Leishmania (Leishmania) amazonensis” (BioMed Research International, 2017)
pKd: −log10 of the molar value.

How the values were obtained:
[1] = target: H-2 L^d:Ig (DimerX) protein; test: SPR kinetics of synthetic peptide binding to immobilized DimerX; set-up: species or system Mouse; conditions: for pKd: KD = kd/ka from SPR at 25°C, read-out: affinity constant (KD); for association constant (ka) / dissociation constant (kd): SPR, DimerX immobilized on carboxylated sensor chip by EDC/NHS, peptide in PBS, neutral pH, 25°C
Procedure: Surface Functionalization of Sensor Chip (Steps 1 and 2). The functionalization process was performed in eight steps using running buffer (10 mM HEPES, 3 mM EDTA, 150 mM NaCl, and 0.005% Tween 20, pH 7.4) at a continuous flow rate (Fr): (i) injection of 10 μL of 50 mM HCl (Fr = 10 μL/min); (ii) injection of 100 μL 10 mM CH3COOH (Fr = 50 μL/min); (iii) injection of 150 μL of coupling agents (1 : 1) 400 mM EDC : NHS (Fr = 15 μL/min); (iv) injection of 100 μL 10 mM CH3COOH (Fr = 50 μL/min); (v) injection of 100 μL (0.5 μg) of DimerX H-2 L^d:Ig (Fr = 10 μL/min); (vi) injection of 100 μL 10 mM CH3COOH (Fr = 50 μL/min); (vii) injection of 150 μL 100 mM ethanolamine (Fr = 20 μL/min); and (viii) injection of 200 μL 50 mM HCl (Fr = 50 μL/min).
Complex Formation of H-2 L ^d :Ig/Peptide (Step 3). Binding of peptides to protein DimerX was performed through the injection of 100 μL of each synthetic peptide over the functionalized sensor chip (Fr = 10 μL/min). The peptides (2 mg/mL) were diluted in filtrated PBS, which was also used as the running buffer. The concentration of peptides for binding to the DimerX was determined according to the manufacturer's instructions:(1) Mp=MH·R·Dp/DH, where Mp is micrograms of the peptide, MH is micrograms of H-2 in the reaction, R is molar excess (160 mol) between the peptide and protein H-2, Dp is molecular weight of the peptide, and DH is molecular weight of DimerX (250,000 Da).
Affinity Constants and Gibbs Free Energy. […] The following calculation was used to obtain the KD for interactions that rapidly reach equilibrium:(2) KD=kd/ka. The formation of molecular complex between DimerX and peptides complex was also analyzed to calculate the Gibbs free energy of dissociation. This energy is related to the equilibrium constant (Keq) of the transition state between the product (DimerX/peptide) and its transient state. The values of Keq were calculated using the ka and kd data obtained from the SPR assay at 25°C:(3) ΔG^°=−RTln1/Keq.
The kinetic parameters of DimerX/peptides complexes were assessed, prior to the ex vivo assay with the mouse cells, to ensure that the assayed peptides could stably bind to the H-2 cleft of DimerX proteins. The DimerX proteins were immobilized onto the sensor chip using the EDC/NHS methodology for covalent binding and, thus, we assumed that the α1 and α2 domains of the recombinant H-2 were free to interact with the synthetic peptides in solution. The RU value obtained after DimerX immobilization was taken as reference to define the baseline to measure peptides binding (Figure 1).

[2] = tested on: lymph node cells (T lymphocytes) from L. (L.) amazonensis-infected BALB/c mice; test: SPR interaction of lymph node cells with immobilized DimerX/peptide complexes; format: cell-based; conditions: for RUs (subtractive dissociation response) 3rd week: 3rd week of infection; for RUs (subtractive dissociation response) 6th week: 6th week of infection; for RUs (subtractive dissociation response) 12th week: 12th week of infection; for RUs (subtractive dissociation response) 18th week: 18th week of infection; for trend of reactivity of peptide-reactive T lymphocytes along the infection: weeks 1 to 18 of infection, result in words; for RUs (subtractive dissociation response) 4th week: 4th week of infection
Procedure: BALB/c 5–7-week-old female mice (H-2 haplotype^d) were obtained from the animal care facility of Fiocruz (Centro de Criação de Animais de Laboratório (CECAL), Fiocruz). For the experimental infections, each animal was inoculated subcutaneously with 1.0 × 10^5 stationary-phase promastigotes in PBS (50 μL) in the left hind paw. For in vitro and ex vivo assays, cells were isolated from the lesion-draining popliteal lymph nodes of five mice infected with L. (L.) amazonensis. After isolating and counting the viable cells, these were adjusted and resuspended in RPMI medium supplemented with 2% FCS (5.0 × 10^5 cells/mL). All procedures using animals were previously approved by the Animal Ethics Committee of Fiocruz (Comissão de Ética no Uso de Animais (CEUA), Fiocruz; L-0006/07).
Interaction of the Cells with the Complex DimerX/Peptide (Step 4). The reflectance values were expressed as resonance units per second (RU/s). In these assays, the kinetics of association and dissociation between immobilized DimerX/peptide complexes and lymph node cells were determined. These assays were performed with 10^4 cells suspended in PBS in a final volume of 100 μL (Fr = 5 μL/min).
Regeneration of the Sensor Chips (Step 5). The regeneration was performed by the injection of 250 μL of 30 mM HCl (Fr = 50 μL/min) into the system, followed by the injection of 200 μL PBS (Fr = 50 μL/min). After this procedure, only the DimerX molecules were left on the sensor chip surface; thus they were able to form new complexes with different peptides and interact again with cells.
Lymph node cells were injected onto SPR chips covered by immobilized DimerX/peptides complexes (Figure 4). In these experiments, due to the complexity to define the kinetic parameters for whole cells, the RU values for association (RUa) and dissociation (RUd) were used as standards to assess interaction of cells with the complexes. Also, as the stability of RUd signal over time relates to the stability of interaction, it was used as parameter to define the binding of reactive cells.
Furthermore, experimental evidences support the hypothesis that the binding of the cells from infected mice to the immobilized complexes is specific, once the RUd values obtained for these interactions were consistently higher that those observed for the interaction of cells from noninfected mice. The RU values obtained by the subtraction of the nonspecific interaction RU (cells from noninfected animals) from the specific interaction RU (cells from infected mice) were considered as representative of the binding effectiveness (Table 2). These effectiveness RU values allowed observing a different trend of T lymphocytes recognition for each peptide tested throughout the experimental infection timeline (Table 2).

[3] = RUd of cells from infected mice minus RUd of cells from noninfected mice, 10^4 cells in PBS

Sequence of H-2 L^d:Ig (DimerX) protein (P01897 25-298 limits assumed): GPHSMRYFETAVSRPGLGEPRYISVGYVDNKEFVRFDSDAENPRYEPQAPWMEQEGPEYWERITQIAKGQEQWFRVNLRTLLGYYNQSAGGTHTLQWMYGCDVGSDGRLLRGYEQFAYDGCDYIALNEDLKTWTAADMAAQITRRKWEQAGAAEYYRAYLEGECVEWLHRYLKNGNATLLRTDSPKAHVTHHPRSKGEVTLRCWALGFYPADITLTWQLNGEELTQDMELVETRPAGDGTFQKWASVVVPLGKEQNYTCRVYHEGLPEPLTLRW
Sequence of H-2 L^d:Ig (DimerX) protein (P01887 21-119, further chain): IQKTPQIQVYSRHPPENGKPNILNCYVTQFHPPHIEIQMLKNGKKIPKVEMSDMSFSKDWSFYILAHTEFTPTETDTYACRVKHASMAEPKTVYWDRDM

| Sequence | pKd [1] | association constant (ka) [1] | dissociation constant (kd) [1] [S^−1] | RUs (subtractive dissociation response) 3rd week [2, 3] [RU] | RUs (subtractive dissociation response) 6th week [2, 3] [RU] | RUs (subtractive dissociation response) 12th week [2, 3] [RU] | RUs (subtractive dissociation response) 18th week [2, 3] [RU] | trend of reactivity of peptide-reactive T lymphocytes along the infection [2] | RUs (subtractive dissociation response) 4th week [2, 3] [RU] | RUs (subtractive dissociation response) 1st week ([2]; RUd of cells from infected mice minus RUd of cells from noninfected mice, 10^4 cells in PBS, 1st week of infection) [RU] |
| --- | --- | --- | --- | --- | --- | --- | --- | --- | --- | --- |
| VEQVICFD [P1.10, synthetic peptide VEQVICFD derived from the COOH-terminal region of cysteine proteinase B of L. (L.) amazonensis] | 9.00 | 1.10 × 10^8 M^−1 S^−1 | 0.1230 | 227 | 123 | 31 | 44 | clear tendency to diminish their reactivity along the infection |  |  |
| CLGGGLCL [P6.4, synthetic peptide CLGGGLCL derived from the COOH-terminal region of cysteine proteinase B of L. (L.) amazonensis] | 8.05 | 1.20 × 10^7 M^−1 S^−1 | 0.1089 | 100 | 140 |  | 66 | oscillation in their reactivity | 127 |  |
| MVEQVICFD [P1.9, synthetic peptide … derived from the COOH-terminal region of cysteine proteinase B of L. (L.) amazonensis] | 7.13 | 1.57 × 10^6 M^−1 S^−1 | 0.1157 | 181 | 118 | 120 | 66 | oscillation in their reactivity | 149 | 115 |
| EFCLGGGLC [P6.5, synthetic peptide … derived from the COOH-terminal region of cysteine proteinase B of L. (L.) amazonensis] | 9.15 | 6.40 × 10^7 M^−1 S^−1 | 0.0470 | 55 | 109 | 27 | 85 | oscillation in their reactivity | 185 |  |
